Here are results for 4 compounds from ChEMBL document CHEMBL1201862, “PubChem BioAssay data set” (2004).

Common to all, as to type: functional
Experiment [1] addresses T1, Tyrosine-protein kinase receptor TYRO3 (Homo sapiens, UniProt Q06418).
T1 sequence (Q06418 whole entry): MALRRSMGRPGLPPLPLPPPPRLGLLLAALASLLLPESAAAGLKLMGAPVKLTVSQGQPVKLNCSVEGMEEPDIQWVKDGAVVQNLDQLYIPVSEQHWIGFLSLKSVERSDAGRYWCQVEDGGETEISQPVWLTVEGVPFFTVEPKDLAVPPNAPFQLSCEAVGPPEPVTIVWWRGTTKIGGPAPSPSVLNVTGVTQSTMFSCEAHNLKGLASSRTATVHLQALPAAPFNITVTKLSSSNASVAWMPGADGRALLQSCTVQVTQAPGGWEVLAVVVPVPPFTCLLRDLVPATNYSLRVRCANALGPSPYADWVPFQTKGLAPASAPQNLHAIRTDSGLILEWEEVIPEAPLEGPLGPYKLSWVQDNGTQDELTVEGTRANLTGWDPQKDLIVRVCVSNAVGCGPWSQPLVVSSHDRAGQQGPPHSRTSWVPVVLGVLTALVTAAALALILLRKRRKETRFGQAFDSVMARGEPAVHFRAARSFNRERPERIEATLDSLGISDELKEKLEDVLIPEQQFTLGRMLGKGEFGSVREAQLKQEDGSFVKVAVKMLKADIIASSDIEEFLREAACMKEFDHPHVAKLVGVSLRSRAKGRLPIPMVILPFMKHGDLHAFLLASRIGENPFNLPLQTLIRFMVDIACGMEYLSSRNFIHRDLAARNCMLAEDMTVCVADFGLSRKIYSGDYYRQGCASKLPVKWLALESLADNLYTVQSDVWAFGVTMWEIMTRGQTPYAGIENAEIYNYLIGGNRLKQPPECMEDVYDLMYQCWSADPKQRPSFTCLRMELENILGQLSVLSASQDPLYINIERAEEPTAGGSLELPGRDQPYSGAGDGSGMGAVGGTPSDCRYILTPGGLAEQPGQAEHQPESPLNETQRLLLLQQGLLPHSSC

Experiment [2] deals with Fibroblast growth factor receptor 3 (Homo sapiens, UniProt P22607).
In experiment [3] the target is Serine/threonine-protein kinase DCLK1 (Homo sapiens, UniProt O15075).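 Further: affinity for DCLK1 (listed as DCAMKL1) measured as one member of a kinome-wide kinase profiling panel.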
Experiment [4] deals with Dual specificity tyrosine-phosphorylation-regulated kinase 4 (Homo sapiens, UniProt Q9NR20).
Experiment [5] concerns the target Leukocyte tyrosine kinase receptor (Homo sapiens, UniProt P29376). Description: Navigating the Kinome. Panel member name: LTK.
Experiment [6] addresses Cyclin-dependent kinase 8 (Homo sapiens, UniProt P49336). Kind of experiment: Navigating the Kinome. Panel member name: CDK8.
Experiment [7] deals with Macrophage colony-stimulating factor 1 receptor (Homo sapiens, UniProt P07333).
The target in another experiment is SRSF protein kinase 1 (Homo sapiens, UniProt Q96SB4).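 Further: measured as one member of a kinome-wide kinase profiling panel.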
For experiment [8], the target named is T2, cAMP-dependent protein kinase catalytic subunit PRKX (Homo sapiens, UniProt P51817).
T2 sequence (P51817 whole entry): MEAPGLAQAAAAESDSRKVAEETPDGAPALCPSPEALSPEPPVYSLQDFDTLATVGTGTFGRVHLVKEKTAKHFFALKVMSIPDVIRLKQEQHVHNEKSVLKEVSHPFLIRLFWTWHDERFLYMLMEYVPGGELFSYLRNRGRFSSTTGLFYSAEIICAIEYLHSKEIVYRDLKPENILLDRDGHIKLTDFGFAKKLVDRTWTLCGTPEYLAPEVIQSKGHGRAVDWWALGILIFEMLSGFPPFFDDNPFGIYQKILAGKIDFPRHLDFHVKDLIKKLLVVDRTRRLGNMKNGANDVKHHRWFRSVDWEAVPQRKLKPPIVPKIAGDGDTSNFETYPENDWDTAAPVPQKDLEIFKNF

Experiment [9] addresses Calcium/calmodulin-dependent protein kinase type II subunit alpha (Homo sapiens, UniProt Q9UQM7). Description: Navigating the Kinome. Panel member name: CAMK2A.
For experiment [10], the target named is 5'-AMP-activated protein kinase catalytic subunit alpha-1 (Homo sapiens, UniProt Q13131).
Experiment [11] addresses Glycogen synthase kinase-3 alpha (Homo sapiens, UniProt P49840).
Experiment [12] has as its target Vascular endothelial growth factor receptor 2 (Homo sapiens, UniProt P35968).
Experiment [13] concerns the target T3, Mitogen-activated protein kinase kinase kinase kinase 2 (Homo sapiens, UniProt Q12851).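 Further: measured as one member of a kinome-wide kinase panel, with MAP4K2 as the panel entry.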
T3 sequence (Q12851 whole entry): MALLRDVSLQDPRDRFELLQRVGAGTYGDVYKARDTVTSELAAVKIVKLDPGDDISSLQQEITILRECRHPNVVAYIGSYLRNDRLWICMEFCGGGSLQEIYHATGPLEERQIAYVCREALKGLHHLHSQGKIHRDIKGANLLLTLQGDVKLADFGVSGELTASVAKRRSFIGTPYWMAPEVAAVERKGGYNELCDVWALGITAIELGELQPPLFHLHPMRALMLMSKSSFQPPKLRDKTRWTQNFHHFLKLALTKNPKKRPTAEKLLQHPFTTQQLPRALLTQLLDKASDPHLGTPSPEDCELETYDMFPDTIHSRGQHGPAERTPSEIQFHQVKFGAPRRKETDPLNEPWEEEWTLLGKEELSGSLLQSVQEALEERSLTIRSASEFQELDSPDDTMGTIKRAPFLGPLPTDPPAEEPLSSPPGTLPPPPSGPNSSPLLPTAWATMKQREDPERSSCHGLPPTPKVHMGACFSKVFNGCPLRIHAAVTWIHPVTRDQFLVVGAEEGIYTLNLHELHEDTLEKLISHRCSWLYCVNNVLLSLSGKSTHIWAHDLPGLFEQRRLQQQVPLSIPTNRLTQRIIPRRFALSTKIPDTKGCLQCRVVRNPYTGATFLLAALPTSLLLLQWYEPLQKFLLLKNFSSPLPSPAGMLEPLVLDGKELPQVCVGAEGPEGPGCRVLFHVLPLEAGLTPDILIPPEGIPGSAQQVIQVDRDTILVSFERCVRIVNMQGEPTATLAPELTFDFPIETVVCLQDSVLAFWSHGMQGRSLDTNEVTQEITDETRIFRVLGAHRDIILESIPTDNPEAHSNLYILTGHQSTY

The target of experiment [14] is Tyrosine-protein kinase JAK2 (Homo sapiens, UniProt O60674).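 Further: JAK2 tested as one member of a kinase panel.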
Chain of Tyrosine-protein kinase JAK2 (O60674 whole entry): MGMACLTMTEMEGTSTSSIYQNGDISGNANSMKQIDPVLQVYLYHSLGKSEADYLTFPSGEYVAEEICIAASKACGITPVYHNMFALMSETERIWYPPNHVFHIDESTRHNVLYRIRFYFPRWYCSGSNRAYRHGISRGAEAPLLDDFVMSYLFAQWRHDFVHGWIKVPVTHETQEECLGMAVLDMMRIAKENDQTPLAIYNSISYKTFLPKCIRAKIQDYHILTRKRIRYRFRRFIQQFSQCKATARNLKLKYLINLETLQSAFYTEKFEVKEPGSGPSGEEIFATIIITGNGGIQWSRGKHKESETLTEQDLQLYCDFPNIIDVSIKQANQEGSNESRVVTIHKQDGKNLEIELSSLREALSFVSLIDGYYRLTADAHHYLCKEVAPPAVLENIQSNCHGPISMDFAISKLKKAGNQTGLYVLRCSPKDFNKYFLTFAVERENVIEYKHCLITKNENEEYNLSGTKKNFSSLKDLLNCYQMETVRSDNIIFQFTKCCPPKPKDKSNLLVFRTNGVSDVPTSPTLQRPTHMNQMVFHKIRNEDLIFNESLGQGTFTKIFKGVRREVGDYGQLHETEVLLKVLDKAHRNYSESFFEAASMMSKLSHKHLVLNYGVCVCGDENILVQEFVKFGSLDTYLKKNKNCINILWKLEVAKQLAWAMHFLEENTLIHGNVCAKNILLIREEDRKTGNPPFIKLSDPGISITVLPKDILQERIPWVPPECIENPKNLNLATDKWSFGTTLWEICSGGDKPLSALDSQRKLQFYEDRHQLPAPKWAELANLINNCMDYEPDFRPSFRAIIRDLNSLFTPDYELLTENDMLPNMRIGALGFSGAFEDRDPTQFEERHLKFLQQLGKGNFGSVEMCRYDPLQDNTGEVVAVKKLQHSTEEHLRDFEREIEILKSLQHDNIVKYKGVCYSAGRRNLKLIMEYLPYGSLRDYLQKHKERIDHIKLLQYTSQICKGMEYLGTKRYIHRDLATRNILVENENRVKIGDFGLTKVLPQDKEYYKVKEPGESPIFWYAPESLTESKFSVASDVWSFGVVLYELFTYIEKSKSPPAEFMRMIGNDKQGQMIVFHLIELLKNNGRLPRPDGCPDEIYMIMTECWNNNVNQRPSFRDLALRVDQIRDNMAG
Experiment [15] addresses Glycogen synthase kinase-3 beta (Homo sapiens, UniProt P49841).
Experiment [16] concerns the target Mitogen-activated protein kinase 8 (Homo sapiens, UniProt P45983).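 Further: value comes from one member of a kinome-wide kinase profiling panel.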
For experiment [17], the target named is ALK tyrosine kinase receptor (Homo sapiens, UniProt Q9UM73).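 Further: ALK tested as one member of a kinase panel screen.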
Chain of ALK tyrosine kinase receptor (Q9UM73 whole entry): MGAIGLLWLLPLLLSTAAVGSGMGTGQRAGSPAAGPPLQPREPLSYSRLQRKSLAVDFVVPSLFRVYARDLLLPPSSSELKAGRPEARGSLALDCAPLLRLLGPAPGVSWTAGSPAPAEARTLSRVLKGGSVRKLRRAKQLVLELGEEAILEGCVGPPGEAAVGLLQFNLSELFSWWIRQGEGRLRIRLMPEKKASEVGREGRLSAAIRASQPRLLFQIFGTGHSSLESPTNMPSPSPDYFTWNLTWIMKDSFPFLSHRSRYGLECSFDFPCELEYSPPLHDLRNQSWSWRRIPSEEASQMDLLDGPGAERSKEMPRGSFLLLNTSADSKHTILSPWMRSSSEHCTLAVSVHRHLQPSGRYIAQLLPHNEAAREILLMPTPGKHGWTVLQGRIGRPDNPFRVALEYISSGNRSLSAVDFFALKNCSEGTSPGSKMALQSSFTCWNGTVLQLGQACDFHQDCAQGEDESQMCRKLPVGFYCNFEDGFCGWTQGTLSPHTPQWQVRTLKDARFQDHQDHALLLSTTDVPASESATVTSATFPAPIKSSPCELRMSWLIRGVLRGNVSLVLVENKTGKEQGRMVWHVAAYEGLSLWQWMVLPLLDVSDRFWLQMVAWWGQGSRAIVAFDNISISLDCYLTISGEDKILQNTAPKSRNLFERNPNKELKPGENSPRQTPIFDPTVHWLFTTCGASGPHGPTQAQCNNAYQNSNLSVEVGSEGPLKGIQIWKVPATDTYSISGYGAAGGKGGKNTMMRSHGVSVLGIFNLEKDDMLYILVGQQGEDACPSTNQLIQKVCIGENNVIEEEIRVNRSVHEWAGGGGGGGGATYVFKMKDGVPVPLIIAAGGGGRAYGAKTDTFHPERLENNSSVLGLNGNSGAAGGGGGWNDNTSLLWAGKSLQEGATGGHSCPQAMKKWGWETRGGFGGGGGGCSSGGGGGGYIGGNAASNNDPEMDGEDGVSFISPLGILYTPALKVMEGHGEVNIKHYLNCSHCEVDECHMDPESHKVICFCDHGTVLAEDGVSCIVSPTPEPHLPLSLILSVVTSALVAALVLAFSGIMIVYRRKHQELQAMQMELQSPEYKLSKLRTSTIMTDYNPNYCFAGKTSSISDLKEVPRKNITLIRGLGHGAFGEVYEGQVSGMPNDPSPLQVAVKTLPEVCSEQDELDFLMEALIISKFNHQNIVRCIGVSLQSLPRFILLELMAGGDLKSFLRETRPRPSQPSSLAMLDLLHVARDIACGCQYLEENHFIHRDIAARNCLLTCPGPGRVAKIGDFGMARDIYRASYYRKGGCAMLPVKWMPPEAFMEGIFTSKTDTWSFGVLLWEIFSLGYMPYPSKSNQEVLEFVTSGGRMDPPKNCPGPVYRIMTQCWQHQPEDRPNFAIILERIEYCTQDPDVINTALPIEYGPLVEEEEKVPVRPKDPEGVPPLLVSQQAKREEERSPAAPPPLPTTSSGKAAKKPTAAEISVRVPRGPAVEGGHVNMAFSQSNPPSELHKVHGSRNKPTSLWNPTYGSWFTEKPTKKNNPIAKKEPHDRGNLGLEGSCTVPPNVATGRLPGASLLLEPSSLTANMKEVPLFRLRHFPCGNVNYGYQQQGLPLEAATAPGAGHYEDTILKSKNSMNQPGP

Calls of active or inactive are those of the source. Where only a bound is given, the exact number is not on record here.

Chain of Calcium/calmodulin-dependent protein kinase type II subunit alpha (Q9UQM7 whole entry): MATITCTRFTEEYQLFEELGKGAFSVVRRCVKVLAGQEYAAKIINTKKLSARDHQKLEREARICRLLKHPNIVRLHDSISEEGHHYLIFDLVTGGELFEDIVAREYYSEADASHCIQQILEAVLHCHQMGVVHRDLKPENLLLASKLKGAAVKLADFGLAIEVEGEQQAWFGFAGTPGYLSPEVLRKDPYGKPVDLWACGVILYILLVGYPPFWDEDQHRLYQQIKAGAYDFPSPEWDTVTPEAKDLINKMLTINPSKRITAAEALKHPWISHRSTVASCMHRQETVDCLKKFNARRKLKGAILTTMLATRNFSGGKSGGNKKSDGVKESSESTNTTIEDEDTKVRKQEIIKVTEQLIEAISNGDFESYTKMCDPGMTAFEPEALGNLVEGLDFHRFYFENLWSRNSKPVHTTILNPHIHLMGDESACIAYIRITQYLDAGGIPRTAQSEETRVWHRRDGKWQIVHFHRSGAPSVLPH
Chain of Vascular endothelial growth factor receptor 2 (P35968 whole entry): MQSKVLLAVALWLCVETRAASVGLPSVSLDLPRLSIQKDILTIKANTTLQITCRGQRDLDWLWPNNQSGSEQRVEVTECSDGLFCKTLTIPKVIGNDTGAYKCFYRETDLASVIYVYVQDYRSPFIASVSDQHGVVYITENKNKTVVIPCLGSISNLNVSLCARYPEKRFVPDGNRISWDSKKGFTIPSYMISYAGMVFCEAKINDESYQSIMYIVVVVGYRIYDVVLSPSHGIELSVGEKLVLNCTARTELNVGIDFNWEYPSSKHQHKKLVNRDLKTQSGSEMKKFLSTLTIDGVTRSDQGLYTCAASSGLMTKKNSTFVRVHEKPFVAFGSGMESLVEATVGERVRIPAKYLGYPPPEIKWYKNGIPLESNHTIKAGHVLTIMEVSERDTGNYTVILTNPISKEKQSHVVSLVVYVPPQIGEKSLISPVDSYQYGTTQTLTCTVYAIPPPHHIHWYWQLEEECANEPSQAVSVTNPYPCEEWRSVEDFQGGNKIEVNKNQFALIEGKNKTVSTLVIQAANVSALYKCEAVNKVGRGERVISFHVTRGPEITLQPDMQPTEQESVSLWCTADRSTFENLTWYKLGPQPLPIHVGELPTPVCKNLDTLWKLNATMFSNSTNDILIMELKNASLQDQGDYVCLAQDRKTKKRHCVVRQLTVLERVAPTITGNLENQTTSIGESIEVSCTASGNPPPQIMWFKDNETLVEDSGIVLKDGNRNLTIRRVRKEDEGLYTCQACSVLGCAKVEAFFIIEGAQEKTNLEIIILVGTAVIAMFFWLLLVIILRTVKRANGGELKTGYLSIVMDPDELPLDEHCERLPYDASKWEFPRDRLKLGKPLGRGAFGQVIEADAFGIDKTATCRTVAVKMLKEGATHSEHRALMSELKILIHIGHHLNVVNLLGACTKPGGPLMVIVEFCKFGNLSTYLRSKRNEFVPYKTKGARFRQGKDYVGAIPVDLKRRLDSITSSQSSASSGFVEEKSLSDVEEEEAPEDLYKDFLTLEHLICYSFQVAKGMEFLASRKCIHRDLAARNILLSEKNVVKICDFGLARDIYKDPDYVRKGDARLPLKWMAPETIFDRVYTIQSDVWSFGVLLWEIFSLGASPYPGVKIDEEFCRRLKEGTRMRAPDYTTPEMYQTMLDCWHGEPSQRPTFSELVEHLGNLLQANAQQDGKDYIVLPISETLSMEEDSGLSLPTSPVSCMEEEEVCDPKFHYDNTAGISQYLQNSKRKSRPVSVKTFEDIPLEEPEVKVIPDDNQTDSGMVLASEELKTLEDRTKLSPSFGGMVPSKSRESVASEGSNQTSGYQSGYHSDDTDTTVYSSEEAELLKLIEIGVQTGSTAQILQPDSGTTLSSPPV
Chain of Cyclin-dependent kinase 8 (P49336 whole entry): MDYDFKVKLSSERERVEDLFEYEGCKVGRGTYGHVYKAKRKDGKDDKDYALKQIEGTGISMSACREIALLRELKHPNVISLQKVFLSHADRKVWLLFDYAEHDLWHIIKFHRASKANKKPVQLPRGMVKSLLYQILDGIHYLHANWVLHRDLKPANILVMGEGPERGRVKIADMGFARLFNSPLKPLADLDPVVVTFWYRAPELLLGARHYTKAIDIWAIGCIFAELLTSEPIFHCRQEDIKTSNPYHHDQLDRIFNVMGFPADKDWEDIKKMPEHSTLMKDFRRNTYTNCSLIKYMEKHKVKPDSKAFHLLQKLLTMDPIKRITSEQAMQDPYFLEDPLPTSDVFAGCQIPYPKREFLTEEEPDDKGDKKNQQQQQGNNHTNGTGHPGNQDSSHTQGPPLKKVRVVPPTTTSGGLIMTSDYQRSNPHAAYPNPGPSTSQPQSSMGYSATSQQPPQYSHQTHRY

By Ki is commonly meant a dissociation constant, usually derived from enzyme kinetics or from competition with a known ligand. Turning to `COC(C(=O)N1Cc2[nH]nc(NC(=O)c3ccc(N4CCN(C)CC4)cc3)c2C1)c1ccccc1` (stereo not drawn), the Ki in experiment [1] is > 2.51 µM (inactive); in experiment [2], 0.0316 µM (active); in experiment [3], 0.0398 µM (active); in experiment [4], > 7.94 µM (inactive); in experiment [5], 0.0316 µM (active); in experiment [6], > 3.98 µM (inactive). Further, the Ki is 0.158 µM (active) in [7], > 7.94 µM (inactive) on SRSF protein kinase 1, > 2.51 µM (inactive) in experiment [8] and > 6.31 µM (inactive) in [9].

For `CC(C)(O)c1cn(-c2ccc3[nH]ncc3c2)nn1`, the Ki in experiment [1] was 25.1 µM (active); in [10], 6.31 µM (active); in experiment [11] it was 12.6 µM (active); in experiment [12], 39.8 µM (active); in experiment [13] it was 50.1 µM (active); in experiment [14], 31.6 µM (active). Moreover, the inhibitory constant (Ki) in [5] was 15.8 µM (active); in [6] it was 15.8 µM (active); in experiment [7], 39.8 µM (active); in experiment [15], 12.6 µM (active); in experiment [16], 20 µM (active); in experiment [8], 20 µM (active). Moreover, the figures for the Ki in experiment [17] and in [9] were 79.4 µM (active) and 63.1 µM (active), respectively.

Take `NC1CCC(Nc2nccc(-c3c[nH]c4ncccc34)n2)CC1` (stereo not drawn): the Ki in experiment [1] was > 2 µM (inactive); in [2], > 2 µM (inactive); in [10], 0.126 µM (active); in experiment [11], 0.158 µM (active); in experiment [12], > 7.94 µM (inactive); in [3] it was 1 µM (active). The inhibitory constant (Ki) in experiment [13] was 0.0501 µM (active); in experiment [14], 0.251 µM (active); in experiment [4], 1.58 µM (active); in [7], 0.1 µM (active); in experiment [15], 0.2 µM (active); at SRSF protein kinase 1, 1 µM (active). Besides, the Ki in experiment [16] is 0.1 µM (active); in experiment [8], 0.00631 µM (active); in [17], > 1.26 µM (inactive).

With `OCc1cc(-c2ccc3[nH]ncc3c2)on1`, the Ki was 63.1 µM (active) in [1]; 31.6 µM (active) in experiment [10]; 2.51 µM (active) in experiment [11]; 7.94 µM (active) in experiment [12]; 39.8 µM (active) in experiment [13]; 25.1 µM (active) in experiment [14]. The Ki in experiment [5] was 20 µM (active); in [6], 6.31 µM (active); in [7], > 100 µM (inactive); in [15], 3.16 µM (active); in experiment [16], 12.6 µM (active); in [8], 15.8 µM (active). In addition, the inhibition constant Ki in [17] and in experiment [9] was 79.4 µM (active) throughout.
